Test results published in US10688063B2, “Treating and/or preventing insulin-resistance related weight gain” (University of South Florida, priority 2013, dated 2020).

Experiments:
[1] = test system: aPKC; test: aPKC activity in brains of heterozygous muscle-specific PKC-λ knockout mice (Western); type: in vivo, mouse; settings: treated for 8 days
Description: Standard lab mice (“control” or “con” mice) and heterozygous muscle-specific PKC-λ knockout mice were fed standard chow containing 10% fat. Some mice were treated for 8 days with ICAPP. Some mice were acutely treated with insulin (1 U/kg body weight administered intraperitoneally) 15 minutes prior to killing. Brain tissues were collected and prepared for phospho-protein analysis. Activity/activation of aPKC was assessed by Western blot analyses of phospho-protein immunoreactivity followed by quantitative scanning of the blots.

[2] = test system: aPKC; test: aPKC activity in liver and muscle of high fat fed (HFF) mice, 10 weeks treatment; type: in vivo, mouse; settings: daily s.c. 10 weeks
[3] = target: T1, Akt2 (Mus musculus, UniProt Q60823); test: Akt2 activity in liver and muscle of HFF mice, 10 weeks treatment; type: in vivo; settings: daily s.c. 10 weeks
T1 construct: from tissue; host or cells: mouse liver and muscle

[4] = test system: Ser473-Akt, Ser9-GSK3β, Thr555/560-PKC-λ/ζ, Thr2448-mTOR; test: Hepatic phosphorylation of Ser473-Akt, Ser9-GSK3β, Thr555/560-PKC-λ/ζ, Thr2448-mTOR in HFF mice (Western); type: in vivo, mouse; settings: 10 weeks
Description: (§1) Post mortem, liver tissue was removed and examined for immunoreactivity of the indicated signaling factors.
Tissue Preparation: To prepare cell lysates, liver and muscle tissue samples were homogenized in ice-cold buffer containing 0.25 mol/l sucrose, 20 mmol/l Tris/HCl (pH, 7.5), 2 mmol/l EGTA, 2 mmol/l EDTA, 1 mmol/l phenlysulfonlyfluoride (PMSF), 20 μg/ml leupeptin, 10 μg/ml aprotinin, 2 mmol/l Na4P2O7, 2 mmol/l Na3VO4, 2 mmol/l NaF, and 1 μmol/l microcystin, and then supplemented with 1% TritonX-100, 0.6% Nonidet and 150 mmol/l NaCl, and cleared by low-speed centrifugation.
Western Analysis: Western analysis for the indicated signaling factors and GAPDH (endogenous control) were conducted as described in Sajan and Farese. 2012 Diabetologia. 55:1446-1457, Standaert et al. 2004. J. Biol. Chem. 279:24929-24934, Sajan et al. 2012. Metabolism. 61:459-469, Sajan et al. 2009. Diabetologia. 52:1197-1207, Sajan et al. 2009. J. Lipid Res. 50:1133-1145, and Sajan et al. 2013. Diabetologia. 56:2507-2516 using […] anti-phospho-Ser^473-Akt antiserum, rabbit anti-glyceraldehyde-phosphate dehydrogenase (GAPDH) antiserum, rabbit anti-WD40-ProF antiserum, and rabbit anti-aPKC antiserum (Santa Cruz Biotechnologies, Santa Cruz, Calif.); rabbit anti-phospho-Thr560/555 PKC-ζ/λ/ι antiserum (Invitrogen, Carlsbad, Calif.); rabbit anti-p-Ser^256-FoxO1 and anit-FoxO1 antiserum (Abnova, Walnut, Calif.); mouse monoclonal anti-PKC-λ/ι antibodies (Transduction Antibodies, Bedford, Mass.); and rabbit anti-phospho-Ser^9-GSK3β antiserum, rabbit anti-phosphoSer^[…]-mTOR antiserum, and mouse anti-Akt antibodies (Cell Signaling Technologies, Danvers, Mass.). Samples from experimental groups were compared on the same blots and corrected for recovery as needed by measurement of GAPDH immunoreactivity.

[5] = test system: SREBP-1c, FAS, PEPCK, G6Pase; test: Hepatic mRNA and protein levels of lipogenic and gluconeogenic enzymes in HFF mice; type: in vivo, mouse; settings: 10 weeks, ad libitum-fed
Description: as §1
Nuclear preparations were also prepared as described in Sajan et al. 2009. Diabetologia. 52:1197-1207. Western analysis was conducted to evaluate the indicated immunoreactive proteins as in Example 7, except in this Example, rabbit polyclonal anti-GAPDH antiserum, rabbit polyclonal anti-FAS antiserum, rabbit polyclonal anti-PEPCK antiserum, rabbit polyclonal anti-G6Pase antiserum (Santa Cruz Biotechnologies, Santa Cruz, Calif.), and mouse monoclonal anti-SREBP-1 antibodies (Lab Vision Corp., Freemont, Calif.) were used to detect the indicated proteins.

[6] = test system: FoxO1, WD40/ProF; test: Hepatic Ser256-FoxO1 phosphorylation and aPKC/Akt in WD40/ProF immunoprecipitates in HFF mice; type: in vivo, mouse; settings: 10 weeks
Description: as §1
For the results shown in FIG. 10A, liver cell lysates were prepared as previously described. Phosphorylated FoxO1 and un-phosphorylated FoxO1 were analyzed using western blotting as previously described except rabbit anti-phospho-Ser^256-FoxO1 antisera and anti-FoxO1 antiserum was used.
For the results in FIG. 10B, the indicated immunoreactive proteins were analyzed in the immunopercipitates via western blot as previously described except that rabbit anti-aPKC-λ/ι, FoxO1, or WD40/ProF antisera were used.

[7] = Glucose tolerance, serum parameters, body weight, food intake, liver and abdominal fat in HFF mice; type: in vivo, mouse
Description: Briefly, […] body weight was injected intraperitoneally. After the glucose injection, blood glucose levels were measured at 0, 30, 60, 90 and 120 minutes post-injection. 15 minutes prior to killing, mice were injected with or without insulin (1 U/kg body weight). Serum glucose, triglycerides, and serum cholesterol were measured using methods generally known in the art. Liver triglycerides were also measured using methods generally known in the art. Over the 10 weeks, body weight and food intake were measured weekly. Overall change in bodyweight was also evaluated. Additionally, epididymal plus retroperitoneal fat (also abbreviated PG/PN fat) was measured and evaluated as g/100 g of body weight. After killing, liver tissue samples were sectioned and prepared for Oil red O staining by methods generally known in the art. Samples were Oil Red O stained to observe hepatic fat contents.

[8] = test system: aPKC; test: Effect of ceramide on aPKC immunoprecipitated from liver lysates of LF and HF fed mice; type: biochemical, mouse
Description: Standard (C57BI/6/SV129) mice consumed a standard low-fat or high-fat diet for 10 weeks. At 10 weeks mice were treated with or without insulin for 15 min prior to killing. Liver cell lysates were prepared as in Example 5 and aPKC activity assay was performed on the aPKC immunoprecipitate as in Example 5, except here the activity assays were carried out in the presence of the indicated concentrations of ceramide. Additionally, the levels of ceramide and sphingomyelin species in lipid extracts prepared from the liver cell lysates. Ceramide and sphingomyelin species were measured by liquid chromatography tandem mass spectrometry analysis of the lipid extracts of the liver lysates.

[9] = toward, not fully to, normal levels

T1 sequence (Q60823 whole entry): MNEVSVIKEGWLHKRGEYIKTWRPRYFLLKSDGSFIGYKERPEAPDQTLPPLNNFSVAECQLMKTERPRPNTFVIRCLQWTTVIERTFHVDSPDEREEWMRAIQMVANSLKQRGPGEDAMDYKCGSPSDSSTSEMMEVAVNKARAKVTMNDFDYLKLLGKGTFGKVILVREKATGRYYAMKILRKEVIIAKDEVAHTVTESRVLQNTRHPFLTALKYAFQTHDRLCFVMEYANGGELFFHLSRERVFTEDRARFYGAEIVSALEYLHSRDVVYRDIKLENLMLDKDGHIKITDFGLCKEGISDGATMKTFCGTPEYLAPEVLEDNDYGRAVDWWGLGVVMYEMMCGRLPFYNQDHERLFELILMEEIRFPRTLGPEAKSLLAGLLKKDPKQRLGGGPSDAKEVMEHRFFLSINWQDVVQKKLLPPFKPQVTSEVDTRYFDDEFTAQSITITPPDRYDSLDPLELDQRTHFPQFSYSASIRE

Q: With `NC(=O)c1ncn([C@@H]2C[C@H](COP(=O)(O)O)[C@@H](O)[C@H]2O)c1N` [ICAPP] as the compound, how does the “aPKC activity in the brain” value [1] read?
A: decreased

Q: Which results are given for `NC(=O)c1ncn(C2CC(COP(=O)(O)O)C(O)C2O)c1N` (stereo not drawn) [ICAP]?
A: resting and insulin-stimulated hepatic aPKC activity ([2]; ICAP 1 mg/kg, ACPD 10 mg/kg, to control levels): diminished; muscle aPKC activity [2, 9]: increased; hepatic Akt2 activity ([3]; ICAP 1 mg/kg, ACPD 10 mg/kg): increased further; muscle Akt2 activity [3, 9]: increased; hepatic phosphorylation of Ser9-GSK3β and Ser2448-mTOR [4]: not altered; insulin-stimulated Akt2 activity in liver (Ser473-Akt phosphorylation) [4]: increased; resting Akt2 activity in liver (Ser473-Akt phosphorylation) [4]: did not alter; basal/resting and exogenous insulin-stimulated hepatic aPKC activities (Thr555/560 phosphorylation) ([4]; to levels of control low fat fed mice): reduced; hepatic mRNA levels of SREBP-1c, FAS, PEPCK, G6Pase versus control/low-fat fed mice [5]: not significantly different; hepatic protein levels of SREBP-1c, FAS, PEPCK, G6Pase versus control/low-fat fed mice [5]: not significantly different; WD40/ProF-associated Akt activity ([6]; HFF mice liver): increased; aPKC binding to WD40/ProF ([6]; HFF mice liver): diminished; basal/resting and insulin-stimulated hepatic FoxO1 phosphorylation ([6]; HFF mice): fully or partially restored; HFF-induced increases in abdominal fat depots ([7]; 10 weeks): improved; food intake ([7]; 10 weeks): without altering; increases in liver triglycerides and fat content ([7]; 10 weeks): largely prevented; increases in serum triglycerides and cholesterol levels ([7]; 10 weeks): largely prevented; weight gain ([7]; 10 weeks): largely prevented; fasting insulin levels ([7]; still modestly elevated): improved; glucose tolerance, basal glucose levels (fasting and fed), acute effects of insulin on serum glucose ([7]; to levels indistinguishable from control chow-fed mice): improved

Q: For ceramide, which “activity of aPKC immunoprecipitated from liver lysates” value (from here on “activity of aPKC immunoprecipitated”) ([8]; HFF mice) is on record?
A: only a weak effect

Q: What about the “activity of aPKC immunoprecipitated” value ([8]; HFF mice treated acutely with insulin) of the same compound?
A: diminished activity

Q: And the “activity of aPKC immunoprecipitated” value ([8]; LFF/control mice)?
A: strongly activated
